Values of other authors in patent US20140328890A1, “Silver Iodate Compounds Having Antimicrobial Properties” (priority 2010, published 2014).

Details: published literature

For `[Ag+].[Ag+].[Ag+].[Ag+].[Ag+].[O-][I+]([O-])([O-])([O-])([O-])[O-]` [Ag5IO6, pentasilver hexaoxoiodate], the “sensitivity to light and air” value is listed as “insensitive to light and air”.
